Assay results published in ChEMBL document CHEMBL1201862, “PubChem BioAssay data set” (2004).
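Grown in 96-well plates, cells were treated for 48 hours with each compound at five concentrations. Insufficient inhibition: endpoint recorded as highest concentration tested. GI50: concentration for 50% inhibition of growth.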 Calls of active or inactive are those of the source. No stated cut-off is given here; in the data, active = GI50 up to about 1.1 µM and inactive = higher.

Columns and labels:
Assay in all cases: NCI anticancer screen, dose series, 48 h
786-0 = system: 786-0
A549 = system: A549
ACHN = system: ACHN
CCRF-CEM = system: CCRF-CEM
COLO 205 = system: COLO 205
DLD-1 = system: DLD-1
DMS-114 = system: DMS-114
DMS-273 = system: DMS-273
EKVX = system: EKVX
HCC 2998 = system: HCC 2998
HCT-116 = system: HCT-116
HCT-15 = system: HCT-15
HL-60 = system: HL-60
HOP-18 = system: HOP-18
HOP-62 = system: HOP-62
HOP-92 = system: HOP-92
HT-29 = system: HT-29
IGROV-1 = system: IGROV-1
K562 = system: K562
KM-20L2 = system: KM-20L2
KM12 = system: KM12
LOX IMVI = system: LOX IMVI
LXFL 529 = system: LXFL 529
M14 = system: M14
M19-MEL = system: M19-MEL
MOLT-4 = system: MOLT-4
Malme-3M = system: Malme-3M
NCI-H226 = system: NCI-H226
NCI-H23 = system: NCI-H23
NCI-H460 = system: NCI-H460
NCI-H522 = system: NCI-H522
OVCAR-3 = system: OVCAR-3
OVCAR-4 = system: OVCAR-4
OVCAR-5 = system: OVCAR-5
OVCAR-8 = system: OVCAR-8
RPMI-8226 = system: RPMI-8226
RXF 393 = system: RXF 393
RXF 631 = system: RXF 631
SF-268 = system: SF-268
SF-295 = system: SF-295
SF-539 = system: SF-539
SK-MEL-28 = system: SK-MEL-28
SK-MEL-2 = system: SK-MEL-2
SK-MEL-5 = system: SK-MEL-5
SK-OV-3 = system: SK-OV-3
SN12C = system: SN12C
SNB-19 = system: SNB-19
SNB-75 = system: SNB-75
SR = system: SR
SW-620 = system: SW-620
TK-10 = system: TK-10
U-251 = system: U-251
UACC-257 = system: UACC-257
UACC-62 = system: UACC-62
UO-31 = system: UO-31
XF498 = system: XF498
A498 = system: A498
CAKI-1 = system: CAKI-1
SNB-78 = system: SNB-78

Measured: GI50

CC1=CP(=O)(OC(C)C)C=C(C)C1=C(Cl)Cl (stereo not drawn)
46 µM: HCT-15
inactive: 786-0 > 100 µM | A549 26.4 µM | ACHN 47.1 µM | CCRF-CEM 54 µM | COLO 205 18.2 µM | DLD-1 > 100 µM | DMS-114 50.1 µM | DMS-273 44.7 µM | EKVX > 100 µM | HCC 2998 > 100 µM | HCT-116 24.9 µM | HL-60 34.9 µM | HOP-18 > 100 µM | HOP-62 > 100 µM | HOP-92 16.9 µM | HT-29 45.6 µM | IGROV-1 > 100 µM | K562 42 µM | KM-20L2 39.1 µM | KM12 22.5 µM | LOX IMVI 57 µM | LXFL 529 30.7 µM | M14 59.6 µM | M19-MEL 38.4 µM | MOLT-4 57.4 µM | Malme-3M > 100 µM | NCI-H226 26.2 µM | NCI-H23 52.7 µM | NCI-H460 68.2 µM | NCI-H522 2.52 µM | OVCAR-3 > 100 µM | OVCAR-4 > 100 µM | OVCAR-5 > 100 µM | OVCAR-8 68.7 µM | RPMI-8226 32.7 µM | RXF 393 66.2 µM | RXF 631 11.8 µM | SF-268 > 100 µM | SF-295 45.2 µM | SF-539 84.1 µM | SK-MEL-28 63.5 µM | SK-MEL-2 20.3 µM | SK-MEL-5 30.8 µM | SK-OV-3 17.4 µM | SN12C 36.1 µM | SNB-19 > 100 µM | SNB-75 > 100 µM | SR 35.5 µM | SW-620 44 µM | TK-10 > 100 µM | U-251 35.7 µM | UACC-257 32.2 µM | UACC-62 32.6 µM | UO-31 13.1 µM | XF498 > 100 µM

COc1c(C)n(CCO)ccc1=O
inactive: 786-0 > 100 µM | A498 > 100 µM | A549 > 100 µM | ACHN > 100 µM | CAKI-1 > 100 µM | CCRF-CEM > 100 µM | COLO 205 > 100 µM | DLD-1 > 100 µM | DMS-114 > 100 µM | DMS-273 > 100 µM | EKVX > 100 µM | HCT-116 > 100 µM | HL-60 > 100 µM | HOP-62 > 100 µM | HOP-92 > 100 µM | HT-29 > 100 µM | K562 > 100 µM | KM-20L2 > 100 µM | KM12 > 100 µM | LOX IMVI > 100 µM | LXFL 529 > 100 µM | M14 > 100 µM | M19-MEL > 100 µM | MOLT-4 > 100 µM | Malme-3M > 100 µM | NCI-H226 > 100 µM | NCI-H460 > 100 µM | NCI-H522 > 100 µM | OVCAR-3 > 100 µM | OVCAR-4 > 100 µM | OVCAR-5 > 100 µM | OVCAR-8 > 100 µM | RPMI-8226 > 100 µM | RXF 393 > 100 µM | RXF 631 > 100 µM | SF-268 > 100 µM | SF-295 > 100 µM | SK-MEL-28 > 100 µM | SK-MEL-2 > 100 µM | SK-MEL-5 > 100 µM | SK-OV-3 > 100 µM | SN12C > 100 µM | SNB-19 > 100 µM | SNB-75 > 100 µM | SNB-78 > 100 µM | SR > 100 µM | SW-620 > 100 µM | TK-10 > 100 µM | U-251 > 100 µM | UACC-257 > 100 µM | UACC-62 > 100 µM | UO-31 > 100 µM | XF498 > 100 µM
> 100 µM: HCT-15

C[Si]1(C)C(c2ccccc2)=CC2C(c3ccccc3)(c3ccccc3)OC21c1ccccc1 (stereo not drawn)
inactive: 786-0 > 100 µM | A498 > 100 µM | A549 > 100 µM | ACHN > 100 µM | CAKI-1 > 100 µM | CCRF-CEM > 100 µM | COLO 205 > 100 µM | DLD-1 > 100 µM | DMS-114 97.9 µM | DMS-273 > 100 µM | EKVX > 100 µM | HCC 2998 > 100 µM | HCT-116 28.2 µM | HL-60 28.7 µM | HOP-18 > 100 µM | HOP-62 > 100 µM | HOP-92 48.5 µM | HT-29 43 µM | IGROV-1 > 100 µM | K562 87.7 µM | KM-20L2 92.9 µM | KM12 > 100 µM | LOX IMVI > 100 µM | LXFL 529 > 100 µM | M14 43.8 µM | M19-MEL > 100 µM | MOLT-4 58.1 µM | Malme-3M 33.6 µM | NCI-H226 > 100 µM | NCI-H23 > 100 µM | NCI-H460 > 100 µM | NCI-H522 > 100 µM | OVCAR-3 > 100 µM | OVCAR-4 > 100 µM | OVCAR-5 > 100 µM | RPMI-8226 30.1 µM | RXF 393 47.5 µM | RXF 631 > 100 µM | SF-268 > 100 µM | SF-295 66.8 µM | SF-539 > 100 µM | SK-MEL-28 > 100 µM | SK-MEL-2 > 100 µM | SK-MEL-5 63.7 µM | SK-OV-3 > 100 µM | SN12C > 100 µM | SNB-19 > 100 µM | SNB-75 > 100 µM | SR 29.4 µM | SW-620 > 100 µM | TK-10 > 100 µM | U-251 > 100 µM | UACC-257 > 100 µM | UACC-62 > 100 µM | UO-31 > 100 µM | XF498 > 100 µM
> 100 µM: HCT-15

Nc1ccc2c(c1)C(=O)N(OS(=O)(=O)c1ccccc1)C2=O
inactive: 786-0 > 100 µM | A498 > 100 µM | A549 > 100 µM | ACHN > 100 µM | CAKI-1 > 100 µM | CCRF-CEM 76.6 µM | COLO 205 56.4 µM | DLD-1 52.4 µM | DMS-114 > 100 µM | DMS-273 > 100 µM | EKVX > 100 µM | HCC 2998 > 100 µM | HCT-116 > 100 µM | HL-60 46.5 µM | HOP-18 > 100 µM | HOP-62 > 100 µM | HOP-92 > 100 µM | HT-29 > 100 µM | IGROV-1 > 100 µM | K562 86.1 µM | KM-20L2 > 100 µM | KM12 > 100 µM | LOX IMVI 35.5 µM | LXFL 529 82 µM | M14 > 100 µM | M19-MEL > 100 µM | Malme-3M 94.4 µM | NCI-H226 > 100 µM | NCI-H23 > 100 µM | NCI-H460 > 100 µM | NCI-H522 21.5 µM | OVCAR-3 > 100 µM | OVCAR-4 > 100 µM | OVCAR-5 > 100 µM | OVCAR-8 56.9 µM | RXF 393 > 100 µM | RXF 631 > 100 µM | SF-268 > 100 µM | SF-295 > 100 µM | SF-539 > 100 µM | SK-MEL-28 > 100 µM | SK-MEL-2 > 100 µM | SK-MEL-5 > 100 µM | SK-OV-3 > 100 µM | SN12C > 100 µM | SNB-19 > 100 µM | SNB-75 > 100 µM | SNB-78 > 100 µM | SW-620 49.8 µM | TK-10 > 100 µM | U-251 > 100 µM | UACC-257 > 100 µM | UACC-62 > 100 µM | UO-31 > 100 µM | XF498 > 100 µM
> 100 µM: HCT-15
